Measurements from patent publication US11731977B2, “SGC stimulators” (Cyclerion Therapeutics, Inc., priority 2016, dated 2023).

target: T1, sGC enzyme (Homo sapiens, UniProt Q02108+Q02153); experiment: cGMP GloSensor cell-based assay, 384-well format (Example 2a); conditions: HEK293 GloSensor 40F cGMP cells; 10 μM DETA-NONOate; 50% of high control (30 μM Compound Y); read-out: Abs EC50
T1 construct: sGC enzyme activity values in HEK cells, determined by the GloSensor assay; host or cells: HEK293 cells stably expressing GloSensor 40F cGMP biosensor
T1 sequence (Q02153 1-619): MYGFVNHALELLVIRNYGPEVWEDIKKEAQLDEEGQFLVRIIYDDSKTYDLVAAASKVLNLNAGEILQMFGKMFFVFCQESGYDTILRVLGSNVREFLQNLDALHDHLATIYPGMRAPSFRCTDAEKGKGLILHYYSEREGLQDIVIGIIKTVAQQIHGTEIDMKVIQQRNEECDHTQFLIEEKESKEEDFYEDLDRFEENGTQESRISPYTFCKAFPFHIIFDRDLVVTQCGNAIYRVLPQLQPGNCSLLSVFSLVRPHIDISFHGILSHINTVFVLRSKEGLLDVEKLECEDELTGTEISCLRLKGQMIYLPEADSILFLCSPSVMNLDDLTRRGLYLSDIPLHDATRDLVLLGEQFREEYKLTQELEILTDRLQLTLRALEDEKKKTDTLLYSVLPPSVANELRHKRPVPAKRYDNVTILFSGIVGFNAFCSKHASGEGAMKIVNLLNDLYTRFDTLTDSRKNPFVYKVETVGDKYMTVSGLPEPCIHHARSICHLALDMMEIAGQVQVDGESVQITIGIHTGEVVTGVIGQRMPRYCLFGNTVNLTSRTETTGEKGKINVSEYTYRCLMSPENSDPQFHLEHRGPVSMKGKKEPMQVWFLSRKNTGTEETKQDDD
T1 sequence (Q02108 1-690): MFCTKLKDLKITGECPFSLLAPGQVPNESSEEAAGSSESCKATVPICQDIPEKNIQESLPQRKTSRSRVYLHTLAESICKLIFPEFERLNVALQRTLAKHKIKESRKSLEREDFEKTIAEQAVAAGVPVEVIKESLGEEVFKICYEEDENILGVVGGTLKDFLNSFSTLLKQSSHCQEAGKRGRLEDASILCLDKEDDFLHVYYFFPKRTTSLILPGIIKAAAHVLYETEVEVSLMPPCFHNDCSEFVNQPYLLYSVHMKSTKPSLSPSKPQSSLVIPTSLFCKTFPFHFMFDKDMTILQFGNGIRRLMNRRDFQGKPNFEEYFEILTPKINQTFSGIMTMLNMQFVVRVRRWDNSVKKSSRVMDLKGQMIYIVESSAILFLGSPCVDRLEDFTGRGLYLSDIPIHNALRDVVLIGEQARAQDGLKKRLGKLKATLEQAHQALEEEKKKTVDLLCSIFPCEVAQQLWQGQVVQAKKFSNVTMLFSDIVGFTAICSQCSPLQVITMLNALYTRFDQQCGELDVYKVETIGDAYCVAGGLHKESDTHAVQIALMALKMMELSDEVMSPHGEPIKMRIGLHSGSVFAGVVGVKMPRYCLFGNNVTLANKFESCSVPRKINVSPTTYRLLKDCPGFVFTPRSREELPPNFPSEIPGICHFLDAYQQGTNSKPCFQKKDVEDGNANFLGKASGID
From the text: Human embryonic kidney cells (HEK293) cells expressing GloSensor™ 40F cGMP (Part No: CS182801, Promega) were used to evaluate the activity of test compounds. The luminescent biosensors (engineered luciferase) that were incorporated into these cells detect cGMP formed by the compounds stimulating the sGC enzyme and emit luminescence.
cGMP GloSensor cells were maintained in Dulbecco's Modification of Eagle's Medium (DMEM) supplemented with fetal bovine serum (FBS, 10% final) and hygromycine (200 ug/ml). The day before assay, cells were plated in DMEM with 10% FBS in a 50 μL volume at a density of 1.5×10^4 cells/well in a poly-D-lysine coated 384-well flat white-bottom plate (Corning Cat No 35661). Cells were incubated overnight at 37° C. in a humidified chamber with 5% CO2. The next day, medium was removed and cells were replaced with 40 ul/well of GloSensor™, 2 mM (Promega Cat No E1291). Cells were treated for 90 minutes at 25° C. to allow the substrate to equilibrate in the cells. Test compounds and Diethylenetriamine NONOate (DETA-NONOate, or DETA-NO) was diluted to 3 mM (20×) in serum-free CO2 independent medium and serially diluted at 4× dilutions to create 5× dose curve from which 10 ul was added to the wells (x μM concentration for test compound solution and 10 μM concentration for DETA-NONOate solution; wherein x is one of the following final concentrations: 30000 nM, 7500 nM, 1875 nM, 468.8 nM, 117.2 nM, 29.29 nM, 7.320 nM, 1.830 nM, 0.460 nM, 0.114 nM, and 0.029 nM).
For the kinetics studies, luminescense was measured right away for 0.2 sec per well with Envision (Perkin Elmer). For endpoint SAR screening, data were collected after 55 min incubation at room temperature.
Data were normalized to a high control using the following equation: 100*(Sample−Low Control)/(High Control−Low Control), where the low control is the average of 16 samples treated with 1% DMSO, and the high control is the average of 16 samples treated with 30 μM of Compound Y depicted below. Data were fit using a 4-parameter fit (log(agonist) vs. response—variable slope) using GraphPad Prism Software v.5. n=2 for all compounds. The Absolute (Abs) EC50 was interpolated from the curve fit and is defined as the concentration at which a given compound elicits 50% of the high control response after data normalization as indicated above. Compounds failing to elicit a minimum response of 50% are reported as >30 μM or ND. For compounds run in duplicate or n higher than 2, the result herein given is the geometric mean of the several results obtained.

Row | Structure (SMILES) | EC50
1 | Cc1nc(-c2cn3ccnc3c(Cc3ccccc3F)n2)n(Cc2ccc(F)cc2)n1 [Compound I-42, 8-(2-fluorobenzyl)-6-(1-(4-fluorobenzyl)-3-methyl-1H-1,2,4-triazol-5-yl)imidazo[1,2-a]pyrazine] | > 1000 nM
2 | Cc1nc(-c2cn3ccnc3c(Cc3ccccc3F)n2)nn1Cc1cccc(F)c1 [Compound I-47, 8-(2-Fluorobenzyl)-6-(1-(3-fluorobenzyl)-5-methyl-1H-1,2,4-triazol-3-yl)imidazo[1,2-a]pyrazine] | ≤ 100 nM
3 | Cc1nc(-c2cn3ccnc3c(Cc3ccccc3F)n2)nn1CC(=O)C(C)(C)C [Compound I-48, 1-(3-(8-(2-Fluorobenzyl)imidazo[1,2-a]pyrazin-6-yl)-5-methyl-1H-1,2,4-triazol-1-yl)-3,3-dimethylbutan-2-one] | ≤ 100 nM
4 | Cc1nc(-c2cn3ccnc3c(Cc3ccccc3F)n2)nn1CCCCF [Compound I-50, 8-(2-Fluorobenzyl)-6-(1-(4-fluorobutyl)-5-methyl-1H-1,2,4-triazol-3-yl)imidazo[1,2-a]pyrazine] | 100 to 1000 nM
5 | Cc1cc(Cn2nc(-c3cn4ccnc4c(Cc4ccccc4F)n3)nc2C)no1 [Compound I-51, 3-((3-(8-(2-Fluorobenzyl)imidazo[1,2-a]pyrazin-6-yl)-5-methyl-1H-1,2,4-triazol-1-yl)methyl)-5-methylisoxazole] | ≤ 100 nM
6 | CCn1nc(-c2cn3ccnc3c(Cc3ccccc3F)n2)nc1C [Compound I-53, 6-(1-Ethyl-5-methyl-1H-1,2,4-triazol-3-yl)-8-(2-fluorobenzyl)imidazo[1,2-a]pyrazine] | 100 to 1000 nM
7 | Cc1nc(-c2cn3ccnc3c(Cc3ccccc3F)n2)nn1CCC(F)(F)F [Compound I-54, 8-(2-Fluorobenzyl)-6-(5-methyl-1-(3,3,3-trifluoropropyl)-1H-1,2,4-triazol-3-yl)imidazo[1,2-a]pyrazine] | 100 to 1000 nM
8 | CCCCn1nc(-c2cn3ccnc3c(Cc3ccccc3F)n2)nc1C [Compound I-56, 6-(1-Butyl-5-methyl-1H-1,2,4-triazol-3-yl)-8-(2-fluorobenzyl)imidazo[1,2-a]pyrazine] | ≤ 100 nM
9 | Nc1n[nH]c(-c2cn3ccnc3c(Cc3ccccc3F)n2)n1 [Compound I-57, 5-(8-(2-Fluorobenzyl)imidazozo[1,2-a]pyrazin-6-yl)-1H-1,2,4-triazol-3-amine] | 100 to 1000 nM
10 | Nc1nc(-c2cn3ccnc3c(Cc3ccccc3F)n2)nn1Cc1cccc(F)c1 [Compound I-58, 1-(3-Fluorobenzyl)-3-(8-(2-fluorobenzyl)imidazo[1,2-a]pyrazin-6-yl)-1H-1,2,4-triazol-5-amine] | ≤ 100 nM
11 | Nc1nc(-c2cn3ccnc3c(Cc3ccccc3F)n2)nn1CC(F)(F)F [Compound I-59, 3-(8-(2-Fluorobenzyl)imidazo[1,2-a]pyrazin-6-yl)-1-(2,2,2-trifluoroethyl)-1H-1,2,4-triazol-5-amine] | ≤ 100 nM
12 | Nc1nc(-c2cn3ccnc3c(Cc3ccccc3F)n2)n(CC(F)(F)F)n1 [Compound I-60, 5-(8-(2-fluorobenzyl)imidazo[1,2-a]pyrazin-6-yl)-1-(2,2,2-trifluoroethyl)-1H-1,2,4-triazol-3-amine] | > 1000 nM
13 | Fc1ccccc1Cc1nc(-c2nc(Cl)n[nH]2)cn2ccnc12 [Compound I-62, 6-(3-Chloro-1H-1,2,4-triazol-5-yl)-8-(2-fluorobenzyl)-imidazo[1,2-a]pyrazine] | ≤ 100 nM
14 | Fc1ccccc1Cc1nc(-c2nc(-n3ccnc3)n[nH]2)cn2ccnc12 [Compound I-63, 6-(3-(1H-imidazol-1-yl)-1H-1,2,4-triazol-5-yl)-8-(2-fluorobenzyl)imidazo[1,2-a]pyrazine] | 100 to 1000 nM
15 | CN(C)c1n[nH]c(-c2cn3ccnc3c(Cc3ccccc3F)n2)n1 [Compound I-65, 5-(8-(2-fluorobenzyl)imidazo[1,2-a]pyrazin-6-yl)-N,N-dimethyl-1H-1,2,4-triazol-3-amine] | 100 to 1000 nM
16 | Fc1ccccc1Cc1nc(-c2nc(C(F)(F)F)n[nH]2)cn2c(I)cnc12 [Compound I-66, 8-(2-Fluorobenzyl)-3-iodo-6-(3-(trifluoromethyl)-1H-1,2,4-triazol-5-yl)imidazo[1,2-a]pyrazine] | 100 to 1000 nM
17 | Fc1ccccc1Cc1nc(-c2nc(C(F)(F)F)n[nH]2)cn2c(Cl)cnc12 [Compound I-67, 3-Chloro-8-(2-fluorobenzyl)-6-(3-(trifluoromethyl)-1H-1,2,4-triazol-5-yl)imidazo[1,2-a]pyrazine] | ≤ 100 nM
18 | Fc1ccccc1Cc1nc(-c2nc(C(F)(F)F)n[nH]2)cn2c(F)cnc12 [Compound I-68, 3-Fluoro-8-(2-fluorobenzyl)-6-(3-(trifluoromethyl)-1H-1,2,4-triazol-5-yl)imidazo[1,2-a]pyrazine] | ≤ 100 nM
19 | N#Cc1cnc2c(Cc3ccccc3F)nc(-c3nc(C(F)(F)F)n[nH]3)cn12 [Compound I-70, 8-(2-Fluorobenzyl)-6-(3-(trifluoromethyl)-1H-1,2,4-triazol-5-yl)imidazo[1,2-a]pyrazine-3-carbonitrile] | 100 to 1000 nM
20 | Cc1cnc2c(Cc3ccccc3F)nc(-c3nc(C(F)(F)F)n[nH]3)cn12 [Compound I-71, 8-(2-Fluorobenzyl)-3-methyl-6-(3-(trifluoromethyl)-1H-1,2,4-triazol-5-yl)imidazo[1,2-a]pyrazine] | ≤ 100 nM
21 | Fc1ccccc1Cc1nc(-c2nc(C(F)(F)F)n[nH]2)cn2cnnc12 [Compound I-72, 8-(2-Fluorobenzyl)-6-(3-(trifluoromethyl)-1H-1,2,4-triazol-5-yl)-[1,2,4]triazolo[4,3-a]pyrazine] | > 1000 nM
